Assay results published in US20240043860A1, “NOVEL HYDROXYPHENYLPYRUVATE DIOXYGENASE POLYPEPTIDES AND METHODS OF USE THEREOF” (Syngenta Crop Protection AG, priority 2020, published 2024).

Assays:
[1] = tested on: HPPD variant APESV V209 (SEQ ID NO: 18); test: coupled HGO assay; format: biochemical, Apera spica-venti
Description: (§1) DNA sequences (SEQ ID NOs: 65-118, 128, 130, 131, and 133), synthesized for expression in E. coli, by GeneWiz (USA) to encode HPPD variants (SEQ ID NOs: 5-58, 122, 124, 125 and 127) derived from either Avena sativa (SEQ ID NOs: 122, 124), Alopecurus myosuroides (SEQ ID NO: 126) or Apera spica-venti (SEQ ID NOs: 123, 125) were transformed into E coli BL21 (DE3) (New England Biolabs) and grown in 0.5 ml Terrific broth +50 ug/ml Kanamycin media in a 96-deepwell block overnight (37° C., 900rpm). 25 ul of the overnight cultures were inoculated into fresh 96-deepwell block containing 1 ml Formedium Autoinduction Media (AIM). The AIM cultures were grown for 3h at 37° C. (900rpm) and then transferred to 20° C. overnight (900rpm) to allow protein expression. The overnight cultures were centrifuged and 500 ul of Cellytic B (Sigma Aldrich) was added to resuspend the cell pellets. The coupled HGO assay (Siehl et al, 2014) is used to generate IC50 values for the HPPD variants of interest.
(§2) E. coli BL21 (DE3) cells were transformed with a pET24a vector containing a C-terminally his-tagged Arabidopsis HGO gene, grown and induced overnight as described for the HPPD variants above. The cell pellet was resuspended in phosphate buffered saline at pH 7.4 containing 10% Glycerol, 1mm Tris[2-carboxyethyl] phosphine-HCl (TCEP) plus 30 mM Imidazole and lysed using lysozyme/benzonase. The extract was clarified by low speed centrifugation and purified in the same buffer down a 1 ml His Gravitrap column. The bound HGO was eluted in 0.25M imidazole and the fractions pooled and beaded into liquid nitrogen. All procedures apart from the centrifugation and beading steps were carried out under a nitrogen atmosphere.
(§3) The coupled HGO assay is carried out by adding 10 ul of HPPD extract to a 96-well plate and then adding 40 ul of reaction buffer (50 mM Bis Tris Propane, pH7.0, 25 mM sodium-L-ascorbate, 400μM mercaptoethanol, 50 μM Fe(II)SO4). The plates are left to incubate for 5 minutes on ice. […] 200 ul of HPP/HGO (197 μM hydroxyphenylpyruvic acid, 16 μl/ml Homogentisic Acid Oxidase in reaction buffer as described above) buffer is then added to the well and the reaction is regularly monitored (e.g. every 30 seconds-5 minutes) for absorbance at 330 nm for a given time period (e.g., for between 15-60 minutes). The data can then be used to calculate the IC50 value for each HPPD variant of interest.

[2] = tested on: HPPD variant APESV V200 (SEQ ID NO: 6); test: coupled HGO assay; format: biochemical, Apera spica-venti
Description: as §1, §2, §3

[3] = tested on: transgenic tobacco plants expressing mutant HPPD SEQ ID NO: 8; test: spray test, herbicidal damage scoring; format: in vivo; settings: 2000 g/ha; SEQ ID 8 plants compared to plants expressing SEQ IDs 122, 124 or 125
Description: (§4) Avena sativa HPPD or orthologues and variants thereof, for example SEQ IDs 1-63 and 122-127, were expressed in transgenic tobacco. DNA sequences that encode these polypeptides (optimized for tobacco or, optionally, codon optimized according to a target crop such as soybean) were prepared synthetically. Each sequence was designed to include a 5′ fusion with TMV omega 5′ leader sequence such that they are flanked at the 5′ end with XhoI and at the 3′ end with KpnI to facilitate direct cloning into a suitable binary vector for Agrobacterium-based plant transformation. […]
(§5) Plants are assessed for damage and scored at, for example, 7 and 14 days after treatment (DAT). […]
(§6) Plants of events showing the least damage are grown to flowering, then bagged and allowed to self. […] Single copy events amongst the Ti plant lines are identified by their 3:1 segregation ratio (with respect to kanamycin and/or herbicide) and by quantitative RT-PCR. […] HPPD expression levels were monitored by Western analysis. […]

[4] = tested on: transgenic tobacco plants expressing mutant HPPD SEQ ID NO: 21; test: spray test, herbicidal damage scoring; format: in vivo; settings: 2000 g/ha; SEQ ID 21 plants compared to plants expressing SEQ IDs 122, 124 or 125
Description: as §4, §5, §6

Cn1nnnc1NC(=O)c1ccc(C(F)(F)F)nc1-n1cncn1 [Herbicide D, N-(1-methyltetrazol-5-yl)-2-(1,2,4-triazol-1-yl)-6-(trifluoromethyl)pyridine-3-carboxamide]
IC50 [1]: 95 µM | IC50 [2]: 85.9 µM | damage [3]: significantly reduced damage | damage [4]: significantly reduced damage
